In PMC10178848, “Modulating fast skeletal muscle contraction protects skeletal muscle in animal models of Duchenne muscular dystrophy” (The Journal of Clinical Investigation, 2023):

Test system: GRMD plasma proteins
Assay type: in vivo, dog
Settings: Post-Treatment to GRMD baseline; Increased in GRMD

O=c1ccc(-c2cnc(OCC(F)(F)F)nc2)nn1Cc1cncc(F)c1 [EDG-5506]
Change from GRMD Baseline (fraction): Apolipoprotein E (isoform E3) (APOE): 0.08 fraction
Change from GRMD Baseline (fraction): Apolipoprotein E (isoform E4) (APOE): 0.1456 fraction
Change from GRMD Baseline (fraction): Apoptosis regulator Bcl-2 (BCL2): 0.0105 fraction
Change from GRMD Baseline (fraction): Artemin (ARTN): -0.0439 fraction
Change from GRMD Baseline (fraction): Arylsulfatase B (ARSB): -0.1402 fraction
Change from GRMD Baseline (fraction): B-cell receptor CD22 (CD22): -0.069 fraction
Change from GRMD Baseline (fraction): Baculoviral IAP repeat-containing protein 5 (BIRC5): 0.0116 fraction
Change from GRMD Baseline (fraction): Basal Cell Adhesion Molecule (BCAM): -0.0408 fraction
Change from GRMD Baseline (fraction): Bcl-2-like protein 1 (BCL2L1): 0.0111 fraction
Change from GRMD Baseline (fraction): Bone sialoprotein 2 (IBSP): -0.0621 fraction
Change from GRMD Baseline (fraction): C-C motif chemokine 13 (CCL13): -0.0609 fraction
Change from GRMD Baseline (fraction): C-C motif chemokine 23 (CCL23): -0.0197 fraction
Change from GRMD Baseline (fraction): CCAAT/enhancer-binding protein beta (CEBPB): -0.0884 fraction
Change from GRMD Baseline (fraction): CD59 glycoprotein (CD59): 0.0101 fraction
Change from GRMD Baseline (fraction): Calcineurin (PPP3CA PPP3R1): -0.1169 fraction
Change from GRMD Baseline (fraction): Calcineurin subunit B type 1 (PPP3R1): 0.0394 fraction
Change from GRMD Baseline (fraction): Calcium/calmodulin-dependent protein kinase type 1 (CAMK1): -0.0409 fraction
Change from GRMD Baseline (fraction): Calcium/calmodulin-dependent protein kinase type 1D (CAMK1D): -0.0326 fraction
Change from GRMD Baseline (fraction): Calcium/calmodulin-dependent protein kinase type II subunit alpha (CAMK2A): -0.2874 fraction
Change from GRMD Baseline (fraction): Calcium/calmodulin-dependent protein kinase type II subunit beta (CAMK2B): -0.2753 fraction
Change from GRMD Baseline (fraction): Calcium/calmodulin-dependent protein kinase type II subunit delta (CAMK2D): -0.216 fraction
Change from GRMD Baseline (fraction): Calpain I (CAPN1 CAPNS1): 0.0953 fraction
Change from GRMD Baseline (fraction): Calpastatin (CAST): -0.0561 fraction
Change from GRMD Baseline (fraction): Carbonic anhydrase 3 (CA3): -0.1807 fraction
Change from GRMD Baseline (fraction): Cardiotrophin-1 (CTF1): -0.0345 fraction
Change from GRMD Baseline (fraction): Catalase (CAT): -0.0112 fraction
Change from GRMD Baseline (fraction): Choline/ethanolamine kinase (CHKB): -0.0392 fraction
Change from GRMD Baseline (fraction): Chymase (CMA1): -0.0173 fraction
Change from GRMD Baseline (fraction): Clusterin (CLU): 0.1057 fraction
Change from GRMD Baseline (fraction): Complement component C6 (C6): 0.2667 fraction
Change from GRMD Baseline (fraction): Complement component C8 (C8A C8B C8G): 0.004 fraction
Change from GRMD Baseline (fraction): Complement factor D (CFD): 0.0267 fraction
Change from GRMD Baseline (fraction): Creatine kinase M-type (CKM): -0.092 fraction
Change from GRMD Baseline (fraction): Creatine kinase M-type:Creatine kinase B-type heterodimer (CKB CKM): -0.1124 fraction
Change from GRMD Baseline (fraction): Cyclin-dependent kinase inhibitor 1B (CDKN1B): -0.1243 fraction
Change from GRMD Baseline (fraction): Cysteine and glycine-rich protein 3 (CSRP3): -0.1208 fraction
Change from GRMD Baseline (fraction): Cytochrome c (CYCS): -0.3895 fraction
Change from GRMD Baseline (fraction): DNA repair protein RAD51 homolog 1 (RAD51): 0.0454 fraction
Change from GRMD Baseline (fraction): Desmoglein-1 (DSG1): 0.0063 fraction
Change from GRMD Baseline (fraction): Dickkopf-like protein 1 (DKKL1): -0.0126 fraction
Change from GRMD Baseline (fraction): Down syndrome cell adhesion molecule (DSCAM): -0.0254 fraction
Change from GRMD Baseline (fraction): Dual specificity mitogen-activated protein kinase kinase 1 (MAP2K1): -0.2424 fraction
Change from GRMD Baseline (fraction): Dual specificity protein phosphatase 3 (DUSP3): -0.1403 fraction
Change from GRMD Baseline (fraction): Dynein light chain roadblock-type 1 (DYNLRB1): -0.3202 fraction
Change from GRMD Baseline (fraction): Ectonucleoside triphosphate diphosphohydrolase 1 (ENTPD1): -0.0389 fraction
Change from GRMD Baseline (fraction): Endothelin-converting enzyme 1 (ECE1): -0.0078 fraction
Change from GRMD Baseline (fraction): Ephrin type-A receptor 1 (EPHA1): -0.0034 fraction
Change from GRMD Baseline (fraction): Ephrin type-B receptor 6 (EPHB6): 0.0412 fraction
Change from GRMD Baseline (fraction): Epidermal growth factor (EGF): -0.0427 fraction
Change from GRMD Baseline (fraction): Epidermal growth factor receptor variant III (EGFR): -0.0407 fraction
Change from GRMD Baseline (fraction): Erythropoietin receptor (EPOR): -0.0103 fraction
Change from GRMD Baseline (fraction): Estrogen receptor (ESR1): -0.0238 fraction
Change from GRMD Baseline (fraction): Eukaryotic translation initiation factor 4H (EIF4H): -0.3775 fraction
Change from GRMD Baseline (fraction): Eukaryotic translation initiation factor 4 gamma 2 (EIF4G2): -0.2701 fraction
Change from GRMD Baseline (fraction): Extracellular matrix protein 1 (ECM1): 0.014 fraction
Change from GRMD Baseline (fraction): Fibroblast growth factor 8 isoform B (FGF8): -0.0376 fraction
Change from GRMD Baseline (fraction): Fibroblast growth factor 9 (FGF9): -0.0507 fraction
Change from GRMD Baseline (fraction): Fibronectin Fragment 4 (FN1): -0.0265 fraction
Change from GRMD Baseline (fraction): Follistatin (FST): -0.0231 fraction
Change from GRMD Baseline (fraction): Fractalkine (CX3CL1): 0.0106 fraction
